Values joined by “and” are separate entries in the source; they are usually repeats but may differ in a detail not shown here. Equal entries are not always repeated.
Tested on: angiotensin II (AII) vasopressor response
Assay: AII challenge: inhibition of angiotensin II vasopressor response in conscious spontaneously hypertensive rats
Assay type: in vivo, rat (Okamoto-Aoki SHR)
Conditions: 3 mg/kg IV; for % Inhibition (angiotensin blockage) of AII vasopressor response / Average Change (increase in systolic blood pressure after AII): SHR n = 2; for Change (increase in systolic blood pressure after AII), individual rat / Response After AII (systolic blood pressure), individual rat / Control Before AII (systolic blood pressure), individual rat: individual SHR
Excerpt: By administering a compound of this invention to a rat, and then challenging with angiotensin II, a blockage of the vasopressor response is realized.
Conscious Male Okamoto-Aoki SHR, 16-20 weeks old, weighing approximately 330 g are purchased from Charles River Labs (Wilmington, Mass.). Conscious rats are restrained in a supine position with elastic tape. The area at the base of the tail is locally anesthetized by subcutaneous infiltration with 2% procaine. The ventral caudal artery and vein are isolated, and a cannula made of polyethylene (PE) 10-20 tubing (fused together by heat) is passed into the lower abdominal aorta and vena cava, respectively. The cannula is secured, heparinized (1,000 I.U./ml), sealed and the wound is closed. The animals are placed in plastio restraininq cages in an upright position. The cannula is attached to a Statham P23Db pressure transducer, and pulsatile blood pressure is recorded to 10-15 minutes with a Gould Brush recorder. (Chan et al., (Drug Development Res., 18:75-94, 1989).
Angiotensin II (human sequence, Sigma Chem. Co., St. Louis, Mo.) of 0.05 and 0.1 mcg/kg i.v. is injected into all rats (predosing response). Then a test compound, vehicle or a known angiotensin II antagonist is administered i.v., i.p. or orally to each set of rats. The two doses of angiotensin II are given to each rat again at 30, 60, 90, 120, 180, 240 and 300 minutes post dosing the compound or vehicle. The vasopressor response of angiotensin II is measured for the increase in systolic blood pressure in mmHg. The percentage of antagonism or blockade of the vasopressor response of angiotensin II by a compound is calculated using the vasopressor response (increase in systolic blood pressure) of angiotensin II of each rat predosing the compound as 100%. A compound is considered active if at 30 mg/kg i.v. it antagonized at least 50% of the response.

[1] = AII 0.05 mcg/kg IV, 30 min post dose
[2] = AII 0.05 mcg/kg IV, 60 min post dose
[3] = AII 0.05 mcg/kg IV, 90 min post dose
[4] = AII 0.05 mcg/kg IV, 120 min post dose
[5] = AII 0.05 mcg/kg IV, 180 min post dose
[6] = AII 0.05 mcg/kg IV, 240 min post dose
[7] = AII 0.05 mcg/kg IV, 300 min post dose
[8] = AII 0.1 mcg/kg IV, 30 min post dose
[9] = AII 0.1 mcg/kg IV, 60 min post dose
[10] = AII 0.1 mcg/kg IV, 90 min post dose
[11] = AII 0.1 mcg/kg IV, 120 min post dose
[12] = AII 0.1 mcg/kg IV, 180 min post dose
[13] = AII 0.1 mcg/kg IV, 240 min post dose
[14] = AII 0.1 mcg/kg IV, 300 min post dose

## CCCCc1nc2ccc(C3=NN4CCCCC4C3)cc2c(=O)n1Cc1ccc(-c2ccccc2-c2nnn[nH]2)cc1 (stereo not shown) [Example 11]
[1]
  % Inhibition (angiotensin blockage) of AII vasopressor response: 82%
  Average Change (increase in systolic blood pressure after AII): 7.5 mmHg
  Change (increase in systolic blood pressure after AII), individual rat: 10 mmHg and 5 mmHg
[2]
  % Inhibition (angiotensin blockage) of AII vasopressor response: 59%
  Average Change (increase in systolic blood pressure after AII): 17.5 mmHg
  Change (increase in systolic blood pressure after AII), individual rat: 20 mmHg and 15 mmHg
[3]
  % Inhibition (angiotensin blockage) of AII vasopressor response: 65%
  Average Change (increase in systolic blood pressure after AII): 15 mmHg
  Change (increase in systolic blood pressure after AII), individual rat: 15 mmHg
[4]
  % Inhibition (angiotensin blockage) of AII vasopressor response: 59%
  Average Change (increase in systolic blood pressure after AII): 17.5 mmHg
  Change (increase in systolic blood pressure after AII), individual rat: 20 mmHg and 15 mmHg
[5]
  % Inhibition (angiotensin blockage) of AII vasopressor response: 59%
  Average Change (increase in systolic blood pressure after AII): 17.5 mmHg
  Change (increase in systolic blood pressure after AII), individual rat: 20 mmHg and 15 mmHg
[6]
  % Inhibition (angiotensin blockage) of AII vasopressor response: 53%
  Average Change (increase in systolic blood pressure after AII): 20 mmHg
  Change (increase in systolic blood pressure after AII), individual rat: 25 mmHg and 15 mmHg
[7]
  % Inhibition (angiotensin blockage) of AII vasopressor response: 41%
  Average Change (increase in systolic blood pressure after AII): 25 mmHg
  Change (increase in systolic blood pressure after AII), individual rat: 25 mmHg
[8]
  % Inhibition (angiotensin blockage) of AII vasopressor response: 63%
  Average Change (increase in systolic blood pressure after AII): 17.5 mmHg
  Change (increase in systolic blood pressure after AII), individual rat: 20 mmHg and 15 mmHg
[9]
  % Inhibition (angiotensin blockage) of AII vasopressor response: 42%
  Average Change (increase in systolic blood pressure after AII): 27.5 mmHg
  Change (increase in systolic blood pressure after AII), individual rat: 30 mmHg and 25 mmHg
[10]
  % Inhibition (angiotensin blockage) of AII vasopressor response: 37%
  Average Change (increase in systolic blood pressure after AII): 30 mmHg
  Change (increase in systolic blood pressure after AII), individual rat: 30 mmHg
[11]
  % Inhibition (angiotensin blockage) of AII vasopressor response: 42%
  Average Change (increase in systolic blood pressure after AII): 27.5 mmHg
  Change (increase in systolic blood pressure after AII), individual rat: 30 mmHg and 25 mmHg
[12]
  % Inhibition (angiotensin blockage) of AII vasopressor response: 37%
  Average Change (increase in systolic blood pressure after AII): 30 mmHg
  Change (increase in systolic blood pressure after AII), individual rat: 25 mmHg and 35 mmHg
[13]
  % Inhibition (angiotensin blockage) of AII vasopressor response: 47%
  Average Change (increase in systolic blood pressure after AII): 25 mmHg
  Change (increase in systolic blood pressure after AII), individual rat: 20 mmHg and 30 mmHg
[14]
  % Inhibition (angiotensin blockage) of AII vasopressor response: 42%
  Average Change (increase in systolic blood pressure after AII): 27.5 mmHg
  Change (increase in systolic blood pressure after AII), individual rat: 20 mmHg and 35 mmHg
After AII 0.05 mcg/kg IV, 30 min post dose
  Response After AII (systolic blood pressure), individual rat: 240 mmHg and 225 mmHg
After AII 0.05 mcg/kg IV, 60 min post dose
  Response After AII (systolic blood pressure), individual rat: 230 mmHg
After AII 0.05 mcg/kg IV, 90 min post dose
  Response After AII (systolic blood pressure), individual rat: 215 mmHg and 225 mmHg
After AII 0.05 mcg/kg IV, 120 min post dose
  Response After AII (systolic blood pressure), individual rat: 225 mmHg
After AII 0.05 mcg/kg IV, 180 min post dose
  Response After AII (systolic blood pressure), individual rat: 230 mmHg and 225 mmHg
After AII 0.05 mcg/kg IV, 240 min post dose
  Response After AII (systolic blood pressure), individual rat: 235 mmHg and 220 mmHg
After AII 0.05 mcg/kg IV, 300 min post dose
  Response After AII (systolic blood pressure), individual rat: 240 mmHg and 230 mmHg
After AII 0.1 mcg/kg IV, 30 min post dose
  Response After AII (systolic blood pressure), individual rat: 245 mmHg and 240 mmHg
After AII 0.1 mcg/kg IV, 60 min post dose
  Response After AII (systolic blood pressure), individual rat: 230 mmHg and 250 mmHg
After AII 0.1 mcg/kg IV, 90 min post dose
  Response After AII (systolic blood pressure), individual rat: 235 mmHg and 240 mmHg
After AII 0.1 mcg/kg IV, 120 min post dose
  Response After AII (systolic blood pressure), individual rat: 230 mmHg and 235 mmHg
After AII 0.1 mcg/kg IV, 180 min post dose
  Response After AII (systolic blood pressure), individual rat: 240 mmHg and 250 mmHg
After AII 0.1 mcg/kg IV, 240 min post dose
  Response After AII (systolic blood pressure), individual rat: 245 mmHg and 240 mmHg
After AII 0.1 mcg/kg IV, 300 min post dose
  Response After AII (systolic blood pressure), individual rat: 245 mmHg
Before AII 0.05 mcg/kg IV, 30 min post dose
  Control Before AII (systolic blood pressure), individual rat: 230 mmHg and 220 mmHg
Before AII 0.05 mcg/kg IV, 60 min post dose
  Control Before AII (systolic blood pressure), individual rat: 210 mmHg and 215 mmHg
Before AII 0.05 mcg/kg IV, 90 min post dose
  Control Before AII (systolic blood pressure), individual rat: 200 mmHg and 210 mmHg
Before AII 0.05 mcg/kg IV, 120 min post dose
  Control Before AII (systolic blood pressure), individual rat: 205 mmHg and 210 mmHg
Before AII 0.05 mcg/kg IV, 180 min post dose
  Control Before AII (systolic blood pressure), individual rat: 210 mmHg
Before AII 0.05 mcg/kg IV, 240 min post dose
  Control Before AII (systolic blood pressure), individual rat: 210 mmHg and 205 mmHg
Before AII 0.05 mcg/kg IV, 300 min post dose
  Control Before AII (systolic blood pressure), individual rat: 215 mmHg and 205 mmHg
Before AII 0.1 mcg/kg IV, 30 min post dose
  Control Before AII (systolic blood pressure), individual rat: 225 mmHg
Before AII 0.1 mcg/kg IV, 60 min post dose
  Control Before AII (systolic blood pressure), individual rat: 200 mmHg and 225 mmHg
Before AII 0.1 mcg/kg IV, 90 min post dose
  Control Before AII (systolic blood pressure), individual rat: 205 mmHg and 210 mmHg
Before AII 0.1 mcg/kg IV, 120 min post dose
  Control Before AII (systolic blood pressure), individual rat: 200 mmHg and 210 mmHg
Before AII 0.1 mcg/kg IV, 180 min post dose
  Control Before AII (systolic blood pressure), individual rat: 215 mmHg
Before AII 0.1 mcg/kg IV, 240 min post dose
  Control Before AII (systolic blood pressure), individual rat: 225 mmHg and 210 mmHg
Before AII 0.1 mcg/kg IV, 300 min post dose
  Control Before AII (systolic blood pressure), individual rat: 225 mmHg and 210 mmHg

— patent US5292742A, “Angiotensin II receptor blocking 2,3,6 substituted quinazolinones” (American Cyanamid Company, priority 1993, dated 1994)
